Results as given in the supplement of paper PMC10307832.

Columns and labels:
Test in all cases: relative viability (nuclei count vs DMSO), 5 days (fraction); higher = more cells survive
Pazopanib + Pictilisib = compound: Cc1ccc(Nc2nccc(N(C)c3ccc4c(C)n(C)nc4c3)n2)cc1S(N)(=O)=O [Pazopanib] + CS(=O)(=O)N1CCN(Cc2cc3nc(-c4cccc5[nH]ncc45)nc(N4CCOCC4)c3s2)CC1 [Pictilisib] (partner 1 µM)
How it was run: (§1)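 Each reported value is a median over duplicate plates. It expresses relative viability: treated-well nuclei count divided by vehicle-well nuclei count. Lung cancer cell lines in 1536-well plates were dosed by pin tool a day after seeding, alone with one drug or with a fixed anchor-drug dose plus five library-drug doses (not always all listed) in √10 steps, and nuclei were counted after 5 days.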

Ponatinib + Foretinib = compound: Cc1ccc(C(=O)Nc2ccc(CN3CCN(C)CC3)c(C(F)(F)F)c2)cc1C#Cc1cnc2cccnn12 [Ponatinib] + COc1cc2c(Oc3ccc(NC(=O)C4(C(=O)Nc5ccc(F)cc5)CC4)cc3F)ccnc2cc1OCCCN1CCOCC1 [Foretinib] (partner 0.25 µM)
How it was run: as §1

Pazopanib + Trametinib = compound: Cc1ccc(Nc2nccc(N(C)c3ccc4c(C)n(C)nc4c3)n2)cc1S(N)(=O)=O [Pazopanib] + CC(=O)Nc1cccc(-n2c(=O)n(C3CC3)c(=O)c3c(Nc4ccc(I)cc4F)n(C)c(=O)c(C)c32)c1 [Trametinib] (partner 0.02 µM)
How it was run: as §1

Ponatinib + Crizotinib = compound: Cc1ccc(C(=O)Nc2ccc(CN3CCN(C)CC3)c(C(F)(F)F)c2)cc1C#Cc1cnc2cccnn12 [Ponatinib] + C[C@@H](Oc1cc(-c2cnn(C3CCNCC3)c2)cnc1N)c1c(Cl)ccc(F)c1Cl [Crizotinib] (partner 1 µM)
How it was run: as §1

Row | Cell Line | relative viability (Pazopanib + Pictilisib; first compound 0.01 µM) | relative viability (Pazopanib + Pictilisib; first compound 0.03162 µM) | relative viability (Pazopanib + Pictilisib; first compound 0.1 µM) | relative viability (Pazopanib + Pictilisib; first compound 0.3162 µM) | relative viability (Pazopanib + Pictilisib; first compound 1 µM) | relative viability (Ponatinib + Foretinib; first compound 0.002 µM) | relative viability (Ponatinib + Foretinib; first compound 0.006325 µM) | relative viability (Ponatinib + Foretinib; first compound 0.06325 µM) | relative viability (Ponatinib + Foretinib; first compound 0.2 µM) | relative viability (Pazopanib + Trametinib; first compound 0.01 µM) | relative viability (Pazopanib + Trametinib; first compound 0.03162 µM) | relative viability (Pazopanib + Trametinib; first compound 0.1 µM) | relative viability (Pazopanib + Trametinib; first compound 0.3162 µM) | relative viability (Pazopanib + Trametinib; first compound 1 µM) | relative viability (Ponatinib + Crizotinib; first compound 0.002 µM) | relative viability (Ponatinib + Crizotinib; first compound 0.006325 µM) | relative viability (Ponatinib + Crizotinib; first compound 0.06325 µM) | relative viability (Ponatinib + Crizotinib; first compound 0.2 µM)
1 | SK-MES-1 | 0.39 | 0.365 | 0.391 | 0.379 | 0.335 | 0.856 | 1.08 | 1.25 | 0.959 | 0.537 | 0.555 | 0.621 | 0.725 | 0.628 | 0.978 | 1 | 1.04 | 0.92
2 | EPLC-272H | 0.264 | 0.335 | 0.27 | 0.35 | 0.274 | 0.735 | 0.784 | 0.912 | 0.416 |  | 0.278 | 0.281 | 0.251 | 0.285 | 0.787 | 0.753 | 0.886 | 0.811
3 | NCI-H2126 | 0.443 | 0.472 | 0.559 | 0.444 | 0.531 | 1.12 | 1.29 | 1.34 | 1.07 | 0.506 | 0.503 | 0.599 | 0.563 | 0.577 | 0.97 | 1.02 | 1.1 | 1.03
4 | LXF-289 | 0.701 | 0.784 | 0.778 | 0.735 | 0.822 | 0.92 | 0.952 | 0.96 | 0.943 | 0.691 | 0.675 | 0.717 | 0.71 | 0.706 | 0.769 | 0.825 | 0.821 | 0.792
5 | NCI-H2009 | 0.748 | 0.803 | 0.786 | 0.859 | 0.947 | 1.18 | 1.2 | 1.22 | 1.17 | 0.277 | 0.25 | 0.175 | 0.315 | 0.332 | 1.04 | 0.975 | 1.11 | 1.02
6 | NCI-H3122 | 0.516 | 0.638 | 0.689 | 0.688 | 0.803 | 0.977 | 0.981 | 1 | 0.943 | 0.248 | 0.256 | 0.219 | 0.25 | 0.251 | 0.267 | 0.278 | 0.315 | 0.366
7 | NCI-H1755 | 0.368 | 0.432 | 0.386 | 0.458 | 0.446 | 0.818 | 0.913 | 0.92 | 0.804 | 0.685 | 0.748 | 0.799 | 0.723 | 0.767 | 0.858 | 0.869 | 0.896 | 0.822
8 | HCC-78 | 0.2 | 0.216 | 0.194 | 0.214 | 0.202 | 0.521 | 0.578 | 0.598 | 0.534 |  | 0.864 | 0.721 | 0.804 | 1.06 | 0.291 | 0.322 | 0.447 | 0.312
9 | LOU-NH91 | 0.501 | 0.534 | 0.502 | 0.568 | 0.543 | 0.929 | 0.98 | 0.996 | 0.931 | 0.721 | 0.769 | 0.848 | 0.795 | 0.822 | 0.709 | 0.777 | 0.758 | 0.731
